Measurements from patent publication US4727080A, “1-substituted derivatives of 6-fluoro-7-(pyrrol-1-yl)-1,4-dihydro-4-oxoquinoline-3-carboxylic acid, their preparation and their application as drugs” (Provesan S.A., priority 1984, dated 1988).
≈ marks a conversion by molar mass, not a printed value.

Columns and labels:
[1] = test system: Salmonella typhimurium AMES 98; assay: "In vitro" MIC, Salmonella typhimurium AMES 98; assay type: cell-based; settings: Salmonella enterica; Salmonella typhimurium AMES 98; dextrose agar, 37° C., 20 hours; read-out: "In vitro" MIC
Description: (§1) Antimicrobial pharmacological activity (G. L. Daquet and Y. A. Chabbect, Techniques en bacteriologie (Techniques in bacteriology), vol. 3, Flammarion Medecine-Sciences, Paris, 1972, and W. B. Hugo and A. D. Rusell, Pharmaceutical Microbiology, Blackwell Scientific Publications, London (1977).
Salmonella typhimurium AMES 98
(§2) A streak culture of each of the microorganisms is formed in tubes of antibiotics agar no. 1 and incubated for 20 hours at 37° C. A culture loop is then taken and a culture is formed in a tryptone-soya broth and incubated for 20 hours at 37° C. The resulting culture is diluted to 1/4 with Ringer's physiological solution to give a standardized suspension of 10^5 ufc/ml for each organism.
(§3) Starting from a solution of 1000 μg/ml in 0.1N NaOH, each product is diluted successively in dextrose agar (melted beforehand and kept at 50° C.) to give the following concentrations: 64-32-16-8-4-2-1-0.5-0.25-0.125 μg of derivative/ml of medium.
(§4) After this, each concentration of each product is divided up into Petri dishes of 10 cm diameter at a rate of 10 ml of medium per dish and using as many dishes as there are microorganisms to be tested.
(§5) Once the medium has cooled, the dishes are treated with the inoculations at a rate of 0.4 ml of inoculation per dish. They are spread out with a Drigalski loop and the supernatant is collected. The inoculated dishes are incubated at 37° C. for 20 hours.

[2] = test system: Sarcina lutea ATCC 9341; assay: "In vitro" MIC, Sarcina lutea; assay type: cell-based; settings: Micrococcus luteus, ATCC9341; Sarcina lutea ATCC 9341; dextrose agar, 37° C., 20 hours; read-out: "In vitro" MIC
Description: as §1, §2, §3, §4, §5

[3] = test system: Gram-negative microorganisms; assay: "In vitro" antimicrobial activity compared with nalidixic acid, Gram-negative microorganisms; assay type: cell-based
Description: as §1, §2, §3, §4, §5

[4] = test system: Pseudomonas aeruginosa 25115; assay: "In vitro" MIC, Pseudomonas aeruginosa 25115; assay type: cell-based; settings: Pseudomonas aeruginosa 25115; dextrose agar, 37° C., 20 hours; read-out: "In vitro" MIC
Description: as §1
Pseudomonas aeruginosa 25115
as §2, §3, §4, §5

[5] = test system: Staphylococcus aureus ATCC 25178; assay: "In vitro" MIC, Staphylococcus aureus ATCC 25178; assay type: cell-based; settings: ATCC25178; Staphylococcus aureus ATCC 25178; dextrose agar, 37° C., 20 hours; read-out: "In vitro" MIC
Description: as §1
Staphylococcus aureus ATCC 25178
as §2, §3, §4, §5

[6] = test system: Serratia marcescens ATTC 13880; assay: "In vitro" MIC, Serratia marcescens; assay type: cell-based; settings: ATTC13880; Serratia marcescens ATTC 13880; dextrose agar, 37° C., 20 hours; read-out: "In vitro" MIC
Description: as §1
Serratia marcescens ATTC 13880
as §2, §3, §4, §5

[7] = test system: Shigella flexnerii; assay: "In vitro" MIC, Shigella flexnerii; assay type: cell-based; settings: 20 h, read-out: "In vitro" MIC
Description: as §1, §2, §3, §4, §5

[8] = test system: Salmonella typhimurium AMES 100; assay: "In vitro" MIC, Salmonella typhimurium AMES 100; assay type: cell-based; settings: Salmonella enterica; Salmonella typhimurium AMES 100; dextrose agar, 37° C., 20 hours; read-out: "In vitro" MIC
Description: as §1
Salmonella typhimurium AMES 100
as §2, §3, §4, §5

[9] = test system: Pseudomonas aeruginosa ADSA 47; assay: "In vitro" MIC, Pseudomonas aeruginosa ADSA 47; assay type: cell-based; settings: ADSA47; Pseudomonas aeruginosa ADSA 47; dextrose agar, 37° C., 20 hours; read-out: "In vitro" MIC
Description: as §1
Pseudomonas aeruginosa ADSA 47
as §2, §3, §4, §5

[10] = Acute toxicity to mice; settings: mouse, in vivo, ip, suspension in 5% gum arabic, mortality over 7 days
Description: The experimental animals used to determine this toxicity were albino mice of the C.F.L.P. strain and of both sexes, weighing between 19 and 25 grams. After an 18-hour fasting period with water "ad libitum", the derivatives forming the subject of the present invention are administered intraperitoneally as a suspension in 5% gum arabic. The volume of suspension administered was 0.4 ml/20 grams (20 ml/kg) in all cases, the concentration of the suspension being changed according to the dose administered.
One hour after administration of the derivatives, the animals are given a standard Panlab rat-mouse food. The mortality was observed over a period of 7 days. Differences in mortality between the sexes were not observed with any of the products.

[11] = test system: Enterobacter cloacae CHSP-20; assay: "In vitro" MIC, Enterobacter cloacae; assay type: cell-based; settings: CHSP20; Enterobacter cloacae CHSP-20; dextrose agar, 37° C., 20 hours; read-out: "In vitro" MIC
Description: as §1
Enterobacter cloacae CHSP-20
as §2, §3, §4, §5

[12] = test system: Micrococcus flavus ATCC 10240; assay: "In vitro" MIC, Micrococcus flavus; assay type: cell-based; settings: ATCC10240; Micrococcus flavus ATCC 10240; dextrose agar, 37° C., 20 hours; read-out: "In vitro" MIC
Description: as §1
Micrococcus flavus ATTC 10240
as §2, §3, §4, §5

[13] = test system: Escherichia coli R-1513; assay: "In vitro" MIC, Escherichia coli R-1513; assay type: cell-based; settings: R1513; Escherichia coli R-1513; dextrose agar, 37° C., 20 hours; read-out: "In vitro" MIC
Description: as §1, §2, §3, §4, §5

[14] = test system: Escherichia coli ATCC 10536; assay: "In vitro" MIC, Escherichia coli ATCC 10536; assay type: cell-based; settings: ATCC10536; Escherichia coli ATCC 10536; dextrose agar, 37° C., 20 hours; read-out: "In vitro" MIC
Description: as §1
Escherichia coli ATCC 10536
as §2, §3, §4, §5

[15] = test system: Staphylococcus aureus ATCC 5488/23; assay: "In vitro" MIC, Staphylococcus aureus ATCC 5488/23; assay type: cell-based; settings: ATCC5488; Staphylococcus aureus ATCC 5488/23; dextrose agar, 37° C., 20 hours; read-out: "In vitro" MIC
Description: as §1
Staphylococcus aureus ATCC 5488/23
as §2, §3, §4, §5

[16] = test system: Streptococcus faecalis ATCC 10541; assay: "In vitro" MIC, Streptococcus faecalis; assay type: cell-based; settings: Enterococcus faecalis, ATCC10541; Streptococcus faecalis ATCC 10541; dextrose agar, 37° C., 20 hours; read-out: "In vitro" MIC
Description: as §1
Streptococcus faecalis ATCC 10541
as §2, §3, §4, §5

[17] = test system: Proteus mirabilis ATCC 4675; assay: "In vitro" MIC, Proteus mirabilis; assay type: cell-based; settings: ATCC4675; Proteus mirabilis ATCC 4675; dextrose agar, 37° C., 20 hours; read-out: "In vitro" MIC
Description: as §1
Proteus mirabilis ATCC 4675
as §2, §3, §4, §5

[18] = test system: Proteus morganii CHSP-16; assay: "In vitro" MIC, Proteus morganii; assay type: cell-based; settings: Morganella morganii, CHSP16; Proteus morganii CHSP-16; dextrose agar, 37° C., 20 hours; read-out: "In vitro" MIC
Description: as §1, §2, §3, §4, §5

[19] = test system: Klebsiella pneumoniae ATCC 10031; assay: "In vitro" MIC, Klebsiella pneumoniae; assay type: cell-based; settings: ATCC10031; Klebsiella pneumoniae ATCC 10031; dextrose agar, 37° C., 20 hours; read-out: "In vitro" MIC
Description: as §1
Klebsiella pneumoniae ATCC 10031
as §2, §3, §4, §5

[20] = test system: Enterobacter aerogenes ATCC 15038; assay: "In vitro" MIC, Enterobacter aerogenes; assay type: cell-based; settings: Klebsiella aerogenes, ATCC15038; Enterobacter aerogenes ATCC 15038; dextrose agar, 37° C., 20 hours; read-out: "In vitro" MIC
Description: as §1
Enterobacter aerogenes ATCC 15038
as §2, §3, §4, §5

[21] = test system: Gram-positive cocci; assay: "In vitro" antimicrobial activity compared with nalidixic acid, Gram-positive cocci; assay type: cell-based
Description: as §1, §2, §3, §4, §5

[22] = test system: Citrobacter freundii ATCC 11606; assay: "In vitro" MIC, Citrobacter freundii; assay type: cell-based; settings: ATCC11606; Citrobacter freundii ATCC 11606; dextrose agar, 37° C., 20 hours; read-out: "In vitro" MIC
Description: as §1
Citrobacter freundii ATCC 11606
as §2, §3, §4, §5

[23] = test system: Bacillus subtilis ATCC 6633; assay: "In vitro" MIC, Bacillus subtilis; assay type: cell-based; settings: ATCC6633; Bacillus subtilis ATCC 6633; dextrose agar, 37° C., 20 hours; read-out: "In vitro" MIC
Description: as §1
Bacillus subtilis ATCC 6633
as §2, §3, §4, §5

[24] = test system: all microorganisms; assay: "In vitro" antimicrobial activity compared with nalidixic acid, all microorganisms; assay type: cell-based; settings: against all microorganisms
Description: as §1, §2, §3, §4, §5

Row | SMILES | MIC [1] [µg/mL] | MIC [2] [µg/mL] | MIC [4] [µg/mL] | MIC [5] [µg/mL] | MIC [6] [µg/mL] | MIC [7] [µg/mL] | MIC [8] [µg/mL] | MIC [9] [µg/mL] | LD50 at 168 h [10] [mg/kg] | MIC [11] [µg/mL] | MIC [12] [µg/mL] | MIC [13] [µg/mL] | MIC [14] [µg/mL] | MIC [15] [µg/mL] | MIC [16] [µg/mL] | MIC [17] [µg/mL] | MIC [18] [µg/mL] | MIC [19] [µg/mL] | MIC [20] [µg/mL] | MIC [22] [µg/mL] | further results
1 | CCCn1cc(C(=O)O)c(=O)c2cc(F)c(-n3cccc3)cc21 [Example 5, 6-fluoro-7-(pyrrol-1-yl)-1-propyl-4-oxo-1,4-dihydroquinoline-3-carboxylic acid] | 1 (≈ 3.18 µM) | 8 (≈ 25.5 µM) | 32 (≈ 102 µM) | 0.5 (≈ 1.59 µM) | 1 (≈ 3.18 µM) | 4 (≈ 12.7 µM) | 1 (≈ 3.18 µM) | 32 (≈ 102 µM) | > 1600 | 4 (≈ 12.7 µM) | 8 (≈ 25.5 µM) | 8 (≈ 25.5 µM) | 0.5 (≈ 1.59 µM) | 0.5 (≈ 1.59 µM) | 8 (≈ 25.5 µM) | 16 (≈ 50.9 µM) | 8 (≈ 25.5 µM) | 0.5 (≈ 1.59 µM) | 8 (≈ 25.5 µM) | 8 (≈ 25.5 µM) | activity compared with nalidixic acid [3]: activity of the same order as nalidixic acid; "in vitro" activity compared with nalidixic acid [21]: greater activity towards Gram-positive cocci; MIC [23]: 0.125 µg/mL (≈ 0.398 µM)
2 | CCNn1cc(C(=O)O)c(=O)c2cc(F)c(-n3cccc3)cc21 [Example 8, 6-fluoro-7-(pyrrol-1-yl)-1-ethylamino-4-oxo-1,4-dihydroquinoline-3-carboxylic acid] | 0.062 (≈ 0.197 µM) | 4 (≈ 12.7 µM) | 16 (≈ 50.7 µM) | 0.25 (≈ 0.793 µM) | 2 (≈ 6.34 µM) | 1 (≈ 3.17 µM) | 1 (≈ 3.17 µM) | ≥ 32 | > 1600 | 1 (≈ 3.17 µM) | 2 (≈ 6.34 µM) | 4 (≈ 12.7 µM) | 0.062 (≈ 0.197 µM) | 0.25 (≈ 0.793 µM) | 4 (≈ 12.7 µM) | 8 (≈ 25.4 µM) | 4 (≈ 12.7 µM) | 0.25 (≈ 0.793 µM) | 2 (≈ 6.34 µM) | 4 (≈ 12.7 µM) | activity compared with nalidixic acid [3]: activity of the same order as nalidixic acid; "in vitro" activity compared with nalidixic acid [21]: greater activity towards Gram-positive cocci; MIC [23]: ≤ 0.062 µg/mL
3 | O=C(O)c1cn(C2CC2)c2cc(-n3cccc3)c(F)cc2c1=O [Example 9, 6-fluoro-7-(pyrrol-1-yl)-1-cyclopropyl-1,4-dihydro-4-oxoquinoline-3-carboxylic acid] | 1 (≈ 3.2 µM) | 0.5 (≈ 1.6 µM) | 1 (≈ 3.2 µM) | < 0.06 | 0.5 (≈ 1.6 µM) | 0.2 (≈ 0.64 µM) | < 0.06 | 2 (≈ 6.4 µM) | > 1600 | 0.12 (≈ 0.384 µM) | 0.5 (≈ 1.6 µM) | 0.12 (≈ 0.384 µM) | < 0.06 | < 0.06 | 0.25 (≈ 0.801 µM) | 0.5 (≈ 1.6 µM) | 0.5 (≈ 1.6 µM) | < 0.06 | 0.12 (≈ 0.384 µM) | 0.25 (≈ 0.801 µM) | activity compared with nalidixic acid [24]: greater than the activity of nalidixic acid; MIC [23]: 0.25 µg/mL (≈ 0.801 µM)
